From article PMC9532703, “A novel small molecule RK-019 inhibits FGFR2-amplification gastric cancer cell proliferation and induces apoptosis in vitro and in vivo” (Frontiers in Pharmacology, 2022)

Key:
Test in all cases: Kinase selectivity panel
Assay type in all cases: biochemical
Details in all cases: read-out: Inhibition(%) @ 1 µM RK-019
[1] = target: T1, BMPR2(h) (Homo sapiens, UniProt Q13873)
T1 construct: purchased Eurofins Discovery Services (KinaseProfiler)
Outline: (§1)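 Compound screened at 1 µM against a panel of 422 recombinant human kinases using an in vitro ATP-site competition binding assay; values reported as inhibition ratio.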

[2] = target: T2, BrSK2(h) (Homo sapiens, UniProt Q8IWQ3)
T2 construct: purchased Eurofins Discovery Services (KinaseProfiler)
Outline: as §1

[3] = target: T3, CDK12/cyclinK(h) (Homo sapiens, UniProt Q9NYV4)
T3 construct: purchased Eurofins Discovery Services (KinaseProfiler)
Outline: as §1

[4] = target: T4, CDK4/cyclinD3(h) (Homo sapiens, UniProt P11802)
T4 construct: purchased Eurofins Discovery Services (KinaseProfiler)
Outline: as §1

[5] = target: T5, CDK5/p25(h) (Homo sapiens, UniProt Q00535)
T5 construct: purchased Eurofins Discovery Services (KinaseProfiler)
Outline: as §1

[6] = target: T6, CDK6/cyclinD3(h) (Homo sapiens, UniProt Q00534)
T6 construct: purchased Eurofins Discovery Services (KinaseProfiler)
Outline: as §1

[7] = target: T7, CSK(h) (Homo sapiens, UniProt P41240)
T7 construct: purchased Eurofins Discovery Services (KinaseProfiler)
Outline: as §1

[8] = target: T8, CaMKIIβ(h) (Homo sapiens, UniProt Q13554)
T8 construct: purchased Eurofins Discovery Services (KinaseProfiler)
Outline: as §1

[9] = target: T9, CaMKK2(h) (Homo sapiens, UniProt Q96RR4)
T9 construct: purchased Eurofins Discovery Services (KinaseProfiler)
Outline: as §1

[10] = target: T10, DNA-PK(h) (Homo sapiens, UniProt P78527)
T10 construct: purchased Eurofins Discovery Services (KinaseProfiler)
Outline: as §1

[11] = target: T11, DRAK2(h) (Homo sapiens, UniProt O94768)
T11 construct: purchased Eurofins Discovery Services (KinaseProfiler)
Outline: as §1

[12] = target: T12, EGFR(L861Q)(h) (Homo sapiens, UniProt P00533, L861Q)
T12 construct: purchased Eurofins Discovery Services (KinaseProfiler)
Outline: as §1

[13] = target: T13, Fes(h) (Homo sapiens, UniProt P07332)
T13 construct: purchased Eurofins Discovery Services (KinaseProfiler)
Outline: as §1

[14] = target: T14, Fyn(h) (Homo sapiens, UniProt P06241)
T14 construct: purchased Eurofins Discovery Services (KinaseProfiler)
Outline: as §1

[15] = target: T15, GRK6(h) (Homo sapiens, UniProt P43250)
T15 construct: purchased Eurofins Discovery Services (KinaseProfiler)
Outline: as §1

[16] = target: T16, Haspin(h) (Homo sapiens, UniProt Q8TF76)
T16 construct: purchased Eurofins Discovery Services (KinaseProfiler)
Outline: as §1

[17] = target: T17, IRAK1(h) (Homo sapiens, UniProt P51617)
T17 construct: purchased Eurofins Discovery Services (KinaseProfiler)
Outline: as §1

[18] = target: T18, IRE1(h) (Homo sapiens, UniProt O75460)
T18 construct: purchased Eurofins Discovery Services (KinaseProfiler)
Outline: as §1

[19] = target: T19, MAPK2(h) (Homo sapiens, UniProt P28482)
T19 construct: purchased Eurofins Discovery Services (KinaseProfiler)
Outline: as §1

[20] = target: T20, MARK1(h) (Homo sapiens, UniProt Q9P0L2)
T20 construct: purchased Eurofins Discovery Services (KinaseProfiler)
Outline: as §1

[21] = target: T21, MARK3(h) (Homo sapiens, UniProt P27448)
T21 construct: purchased Eurofins Discovery Services (KinaseProfiler)
Outline: as §1

[22] = target: T22, MKK3(h) (Homo sapiens, UniProt P46734)
T22 construct: purchased Eurofins Discovery Services (KinaseProfiler)
Outline: as §1

[23] = target: T23, Met(D1246N)(h) (Homo sapiens, UniProt P08581, D1228N)
T23 construct: purchased Eurofins Discovery Services (KinaseProfiler)
Outline: as §1

[24] = target: T24, MuSK(h) (Homo sapiens, UniProt O15146)
T24 construct: purchased Eurofins Discovery Services (KinaseProfiler)
Outline: as §1

[25] = target: T25, PI3 Kinase (p110b/p85b)(m) (Mus musculus, UniProt Q8BTI9)
T25 construct: purchased Eurofins Discovery Services (KinaseProfiler)

[26] = target: T26, PIP4K2a(h) (Homo sapiens, UniProt P48426)
T26 construct: purchased Eurofins Discovery Services (KinaseProfiler)
Outline: as §1

[27] = target: T27, PKCβII(h) (Homo sapiens, UniProt P05771)
T27 construct: purchased Eurofins Discovery Services (KinaseProfiler)
Outline: as §1

[28] = target: T28, PKG1α(h) (Homo sapiens, UniProt Q13976)
T28 construct: purchased Eurofins Discovery Services (KinaseProfiler)
Outline: as §1

[29] = target: T29, Plk3(h) (Homo sapiens, UniProt Q9H4B4)
T29 construct: purchased Eurofins Discovery Services (KinaseProfiler)
Outline: as §1

[30] = target: T30, Ret(V804M)(h) (Homo sapiens, UniProt P07949, V804M)
T30 construct: purchased Eurofins Discovery Services (KinaseProfiler)
Outline: as §1

[31] = target: T31, Rsk3(h) (Homo sapiens, UniProt Q15349)
T31 construct: purchased Eurofins Discovery Services (KinaseProfiler)
Outline: as §1

[32] = target: T32, SBK1(h) (Homo sapiens, UniProt Q52WX2)
T32 construct: purchased Eurofins Discovery Services (KinaseProfiler)
Outline: as §1

[33] = target: T33, TAO3(h) (Homo sapiens, UniProt Q9H2K8)
T33 construct: purchased Eurofins Discovery Services (KinaseProfiler)
Outline: as §1

[34] = target: T34, TSSK4(h) (Homo sapiens, UniProt Q6SA08)
T34 construct: purchased Eurofins Discovery Services (KinaseProfiler)
Outline: as §1

[35] = target: T35, WNK1(h) (Homo sapiens, UniProt Q9H4A3)
T35 construct: purchased Eurofins Discovery Services (KinaseProfiler)
Outline: as §1

[36] = target: T36, WNK2(h) (Homo sapiens, UniProt Q9Y3S1)
T36 construct: purchased Eurofins Discovery Services (KinaseProfiler)
Outline: as §1

[37] = target: T37, mTOR/FKBP12(h) (Homo sapiens, UniProt P42345)
T37 construct: purchased Eurofins Discovery Services (KinaseProfiler)
Outline: as §1

T37 sequence (P42345 1362-2549 limits assumed): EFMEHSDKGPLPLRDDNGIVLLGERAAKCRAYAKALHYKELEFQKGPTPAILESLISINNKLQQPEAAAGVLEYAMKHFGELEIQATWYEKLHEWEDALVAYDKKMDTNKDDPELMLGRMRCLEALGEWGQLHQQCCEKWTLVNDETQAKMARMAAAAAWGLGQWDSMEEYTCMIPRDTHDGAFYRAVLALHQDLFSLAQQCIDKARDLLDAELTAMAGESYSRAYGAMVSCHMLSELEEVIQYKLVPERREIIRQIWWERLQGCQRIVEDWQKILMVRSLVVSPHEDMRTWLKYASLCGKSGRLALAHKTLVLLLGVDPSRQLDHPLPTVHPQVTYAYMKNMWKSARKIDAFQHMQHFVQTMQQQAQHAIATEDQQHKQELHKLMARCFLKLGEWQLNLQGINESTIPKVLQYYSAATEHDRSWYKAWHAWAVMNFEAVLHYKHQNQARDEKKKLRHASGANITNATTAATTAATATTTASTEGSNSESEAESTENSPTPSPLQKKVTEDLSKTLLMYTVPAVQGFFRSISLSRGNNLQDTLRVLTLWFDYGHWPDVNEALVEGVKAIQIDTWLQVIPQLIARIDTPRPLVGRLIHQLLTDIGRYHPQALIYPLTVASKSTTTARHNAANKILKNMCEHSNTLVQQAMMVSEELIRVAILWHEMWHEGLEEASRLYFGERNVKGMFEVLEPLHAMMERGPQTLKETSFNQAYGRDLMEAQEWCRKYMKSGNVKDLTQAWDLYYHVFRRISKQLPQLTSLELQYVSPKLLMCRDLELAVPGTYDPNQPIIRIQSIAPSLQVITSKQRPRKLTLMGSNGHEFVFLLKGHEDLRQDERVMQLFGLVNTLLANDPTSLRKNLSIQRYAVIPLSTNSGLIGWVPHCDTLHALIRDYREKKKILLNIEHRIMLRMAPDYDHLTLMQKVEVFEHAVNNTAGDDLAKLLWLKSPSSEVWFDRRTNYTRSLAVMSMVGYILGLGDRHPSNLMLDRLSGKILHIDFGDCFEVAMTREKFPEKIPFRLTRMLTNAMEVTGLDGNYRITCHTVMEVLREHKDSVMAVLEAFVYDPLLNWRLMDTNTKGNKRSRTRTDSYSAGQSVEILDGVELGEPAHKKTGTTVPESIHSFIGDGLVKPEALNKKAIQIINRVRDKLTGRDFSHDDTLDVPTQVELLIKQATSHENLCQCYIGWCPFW
T11 sequence (O94768 whole entry): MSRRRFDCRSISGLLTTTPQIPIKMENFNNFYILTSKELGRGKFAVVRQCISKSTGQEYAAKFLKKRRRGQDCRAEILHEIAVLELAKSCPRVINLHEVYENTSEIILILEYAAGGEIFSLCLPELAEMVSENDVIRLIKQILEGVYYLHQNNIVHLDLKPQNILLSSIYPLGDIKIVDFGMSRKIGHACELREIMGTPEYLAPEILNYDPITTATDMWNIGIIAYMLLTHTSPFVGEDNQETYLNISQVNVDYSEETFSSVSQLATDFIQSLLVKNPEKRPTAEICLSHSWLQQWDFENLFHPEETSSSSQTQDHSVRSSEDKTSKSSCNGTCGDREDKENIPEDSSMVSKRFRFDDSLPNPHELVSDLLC
T17 sequence (P51617 whole entry): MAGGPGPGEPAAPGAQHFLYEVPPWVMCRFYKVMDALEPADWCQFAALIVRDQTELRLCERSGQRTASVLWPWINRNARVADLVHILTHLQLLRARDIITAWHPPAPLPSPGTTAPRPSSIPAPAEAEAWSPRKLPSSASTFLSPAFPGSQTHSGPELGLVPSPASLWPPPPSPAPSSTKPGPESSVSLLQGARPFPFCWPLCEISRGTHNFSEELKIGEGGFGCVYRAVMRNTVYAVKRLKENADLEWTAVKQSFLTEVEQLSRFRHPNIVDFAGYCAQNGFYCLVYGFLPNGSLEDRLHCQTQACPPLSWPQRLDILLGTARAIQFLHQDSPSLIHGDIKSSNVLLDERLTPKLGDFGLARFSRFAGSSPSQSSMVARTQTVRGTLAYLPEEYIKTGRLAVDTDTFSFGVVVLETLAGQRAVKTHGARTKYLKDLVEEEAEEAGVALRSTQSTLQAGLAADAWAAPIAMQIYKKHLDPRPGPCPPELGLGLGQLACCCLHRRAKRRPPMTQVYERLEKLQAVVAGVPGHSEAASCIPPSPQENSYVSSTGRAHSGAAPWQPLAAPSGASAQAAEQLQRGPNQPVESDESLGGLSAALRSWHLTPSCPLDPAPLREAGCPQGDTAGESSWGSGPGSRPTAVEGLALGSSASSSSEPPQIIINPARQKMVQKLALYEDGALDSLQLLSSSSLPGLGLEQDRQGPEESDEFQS
T36 sequence (Q9Y3S1 whole entry): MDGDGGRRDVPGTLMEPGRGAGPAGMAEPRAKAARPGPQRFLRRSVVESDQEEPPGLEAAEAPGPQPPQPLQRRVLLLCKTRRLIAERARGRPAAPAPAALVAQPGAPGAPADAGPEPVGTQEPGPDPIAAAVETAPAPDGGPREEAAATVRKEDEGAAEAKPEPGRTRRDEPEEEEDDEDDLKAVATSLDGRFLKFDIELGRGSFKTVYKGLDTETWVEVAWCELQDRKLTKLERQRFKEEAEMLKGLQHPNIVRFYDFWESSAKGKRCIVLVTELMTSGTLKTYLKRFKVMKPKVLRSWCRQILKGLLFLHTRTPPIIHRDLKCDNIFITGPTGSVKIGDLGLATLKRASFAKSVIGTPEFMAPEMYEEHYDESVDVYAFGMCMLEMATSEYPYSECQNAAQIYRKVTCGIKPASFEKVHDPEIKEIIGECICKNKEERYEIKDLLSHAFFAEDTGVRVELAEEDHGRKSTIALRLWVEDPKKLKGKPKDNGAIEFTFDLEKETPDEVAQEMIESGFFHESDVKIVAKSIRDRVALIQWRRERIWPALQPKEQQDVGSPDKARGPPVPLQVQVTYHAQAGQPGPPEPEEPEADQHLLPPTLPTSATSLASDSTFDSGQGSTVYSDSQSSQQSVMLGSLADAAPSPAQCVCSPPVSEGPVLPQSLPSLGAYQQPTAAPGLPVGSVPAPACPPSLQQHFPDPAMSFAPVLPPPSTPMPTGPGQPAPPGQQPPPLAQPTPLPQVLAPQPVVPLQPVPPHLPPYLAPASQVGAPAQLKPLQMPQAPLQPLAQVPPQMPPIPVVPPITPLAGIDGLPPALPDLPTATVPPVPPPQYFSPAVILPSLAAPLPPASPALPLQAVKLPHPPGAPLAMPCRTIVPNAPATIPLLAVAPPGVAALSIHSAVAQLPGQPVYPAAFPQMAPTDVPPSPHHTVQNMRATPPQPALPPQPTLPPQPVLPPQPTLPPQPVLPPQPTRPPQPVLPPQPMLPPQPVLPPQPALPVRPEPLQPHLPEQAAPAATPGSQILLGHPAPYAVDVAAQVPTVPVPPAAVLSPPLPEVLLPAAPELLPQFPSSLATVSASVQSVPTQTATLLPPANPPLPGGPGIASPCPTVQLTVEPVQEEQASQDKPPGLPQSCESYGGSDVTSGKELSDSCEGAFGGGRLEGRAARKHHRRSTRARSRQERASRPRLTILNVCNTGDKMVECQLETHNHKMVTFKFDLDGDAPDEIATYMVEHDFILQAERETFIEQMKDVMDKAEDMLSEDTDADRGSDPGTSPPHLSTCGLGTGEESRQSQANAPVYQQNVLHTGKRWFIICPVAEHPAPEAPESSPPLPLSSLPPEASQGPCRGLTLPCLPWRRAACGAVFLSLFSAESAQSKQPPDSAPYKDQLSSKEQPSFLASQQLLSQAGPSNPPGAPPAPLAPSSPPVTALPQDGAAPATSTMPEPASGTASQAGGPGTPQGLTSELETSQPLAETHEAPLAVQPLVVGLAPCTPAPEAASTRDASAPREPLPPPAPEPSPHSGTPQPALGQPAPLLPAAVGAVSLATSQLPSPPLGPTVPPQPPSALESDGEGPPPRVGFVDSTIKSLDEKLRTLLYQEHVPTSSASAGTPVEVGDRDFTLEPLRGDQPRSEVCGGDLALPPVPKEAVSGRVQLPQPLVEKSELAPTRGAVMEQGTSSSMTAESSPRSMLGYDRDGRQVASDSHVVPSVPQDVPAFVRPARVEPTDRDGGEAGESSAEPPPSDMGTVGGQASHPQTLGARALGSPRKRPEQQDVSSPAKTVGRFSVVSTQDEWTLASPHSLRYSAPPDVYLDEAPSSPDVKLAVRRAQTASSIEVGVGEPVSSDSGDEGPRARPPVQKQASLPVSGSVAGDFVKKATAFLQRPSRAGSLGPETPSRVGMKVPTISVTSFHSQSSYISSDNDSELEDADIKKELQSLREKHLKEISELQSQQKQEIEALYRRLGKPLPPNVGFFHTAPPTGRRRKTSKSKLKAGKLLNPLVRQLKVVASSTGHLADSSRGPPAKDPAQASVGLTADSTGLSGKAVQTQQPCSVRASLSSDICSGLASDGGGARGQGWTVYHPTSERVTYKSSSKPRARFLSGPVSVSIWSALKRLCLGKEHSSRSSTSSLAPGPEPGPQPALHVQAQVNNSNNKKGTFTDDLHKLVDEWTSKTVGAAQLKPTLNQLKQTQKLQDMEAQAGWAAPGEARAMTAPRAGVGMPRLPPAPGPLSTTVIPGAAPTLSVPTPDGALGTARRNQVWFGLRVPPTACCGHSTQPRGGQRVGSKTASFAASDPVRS
T34 sequence (Q6SA08 whole entry): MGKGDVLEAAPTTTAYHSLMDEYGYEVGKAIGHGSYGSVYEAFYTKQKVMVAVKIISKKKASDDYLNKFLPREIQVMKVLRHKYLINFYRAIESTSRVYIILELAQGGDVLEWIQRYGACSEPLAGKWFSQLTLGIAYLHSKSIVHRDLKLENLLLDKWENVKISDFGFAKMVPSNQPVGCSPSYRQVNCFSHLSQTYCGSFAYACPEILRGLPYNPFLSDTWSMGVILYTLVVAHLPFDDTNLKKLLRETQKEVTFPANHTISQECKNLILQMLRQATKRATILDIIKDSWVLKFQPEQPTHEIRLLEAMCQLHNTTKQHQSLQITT

SMILES: COc1cc(OC)cc(N(CCN[C@H](C)CO)c2ccc3ncc(-c4cnn(C)c4)c(=O)n3c2)c1 [RK-019, (R)-7-((3,5-dimethoxyphenyl) (2-((1-hydroxypropan-2-yl)amino)ethyl)amino)-3-(1-methyl-1H-pyrazol-4-yl)-4H-pyrido [1,2-a]pyrimidin-4-one]
- activity at 1 µM [1]: 116%
- activity at 1 µM [2]: 96%
- activity at 1 µM [3]: 109%
- activity at 1 µM [4]: 101%
- activity at 1 µM [5]: 112%
- activity at 1 µM [6]: 106%
- activity at 1 µM [7]: 94%
- activity at 1 µM [8]: 80%
- activity at 1 µM [9]: 95%
- activity at 1 µM [10]: 101%
- activity at 1 µM [11]: 96%
- activity at 1 µM [12]: 103%
- activity at 1 µM [13]: 106%
- activity at 1 µM [14]: 62%
- activity at 1 µM [15]: 114%
- activity at 1 µM [16]: 105%
- activity at 1 µM [17]: 103%
- activity at 1 µM [18]: 93%
- activity at 1 µM [19]: 115%
- activity at 1 µM [20]: 93%
- activity at 1 µM [21]: 80%
- activity at 1 µM [22]: 96%
- activity at 1 µM [23]: 89%
- activity at 1 µM [24]: 105%
- activity at 1 µM [25]: 99%
- activity at 1 µM [26]: 102%
- activity at 1 µM [27]: 111%
- activity at 1 µM [28]: 110%
- activity at 1 µM [29]: 101%
- activity at 1 µM [30]: 56%
- activity at 1 µM [31]: 100%
- activity at 1 µM [32]: 96%
- activity at 1 µM [33]: 100%
- activity at 1 µM [34]: 106%
- activity at 1 µM [35]: 95%
- activity at 1 µM [36]: 103%
- activity at 1 µM [37]: 92%
